Measurements from US20110003844A1, “REGULATION OF CARDIAC CONTRACTILITY AND HEART FAILURE PROPENSITY” (Children's Hospital Medical Center, priority 2003, published 2011).
“Also recorded” adds a separate entry of the source. Read-outs that look alike come from different tables or passages of the source.

Legend:
PKC isoforms = details: cited from earlier work
[1] = test system: normal Sprague-Dawley and Lewis rats; assay: in vivo cardiac contractility and hemodynamics in anesthetized normal rats; set-up: species or system rat
Procedure: Selected PKCα inhibitors are evaluated in both naive rats and rats with myocardial infarction (MI) for effects on cardiac contractility and hemodynamics. The effects of inhibitors on cardiac contractility and hemodynamics are evaluated in naïve and MI rats as follows. The animals are anesthetized with isoflurane. A femoral artery is isolated and cannulated for the measurement of systemic blood pressure. A jugular vein is isolated and cannulated for the intravenous infusion of inhibitor. The right carotid artery is isolated and a Millar conductance catheter is inserted to the left ventricle (LV) of the heart. The LV systolic pressure, end-diastolic pressure, +maximum dP/dt, −minimum dP/dt, and heart rate are derived from the LV pressure waveform. Mean arterial blood pressure is derived from the systemic blood pressure waveform. Data are recorded continuously and derived using computerized data acquisition software (Notocord or Powerlab). After a period of stabilization, PKCα inhibitors are infused at the following infusion doses in naïve rats: 0.1, 0.3, 1.0, 3.0, 10, 30, 100, 300 and 1000 nmol/kg/min. The infusion of each dose is allowed to run for at least five minutes. In MI rats, the infusion doses are as follows: 10, 30, 100, 300, and 1000 nmol/kg/min for at least five minutes. Equivalent infusion volumes are administered to separate, vehicle-control naïve and MI animals. At the end of the test infusions, 5.0 μg/kg/min of dobutamine is infused.

[2] = test system: adult wildtype mouse hearts; assay: ex vivo working heart preparation, Ro-32-0432 infusion
Procedure: Mice from all genotypes or treatment groups were anesthetized with isoflurane, and echocardiography was performed using a Hewlett Packard 5500 instrument with a 15-MHZ microprobe. Echocardiographic measurements were taken on M-mode in triplicate from four separate mice per group. The isolated ejecting mouse heart preparation used in the present study has been described in detail previously (Gulick et al. (1997) Circ. Res. 80:655-664), as was the close-chested working heart model employed here (Lorenz et al. (1997) Am. J. Physiol. 272:H1137-H1146).
The relatively selective PKCα/β inhibitory compound Ro-32-0432 [2-{8-[(Dimethylamino)methyl]-6,7,8,9-tetrahydropyrido[1,2-a]indol-3-yl}-3-(1-methylindol-3-yl)maleimide, HCl Salt] [3-{8-[(Dimethylamino)methyl]-6,7,8,9-tetrahydropyrido[1,2-a]indol-10-yl}-4-(1-methylindol-3-yl)-1H -pyrrole-2,5-dione, HCl Salt] was used as a means of directly examining the effects of acute PKCα inhibition on cardiac function and contractility using an ex vivo working heart preparation. The working heart preparation separates the inherent pump function of the heart from potential alterations in total vascular resistance as might occur if the drug were infused in vivo.
Working adult wildtype mouse hearts were infused with vehicle control (10% DMSO) or Ro-32-0432 in 10% DMSO at concentrations ranging between 4×10^−10 through 4'10^−6M. Four animals were analyzed in the Ro-32-0432 group and compared with three animals in the vehicle control group. […] The average heart rate of the vehicle and drug treated groups was 351+/=3 and 292+/−6 beats per minute, respectively. […] The approximate 20% change in acute contractile performance in the Ro-32-0432 treated group is similar to the increase in cardiac function observed in PKCα null mice.

MI rats = assay: in vivo cardiac contractility in anesthetized rats with myocardial infarction; set-up: species or system rat
Procedure: Selected PKCα inhibitors are evaluated in both naive rats and rats with myocardial infarction (MI) for effects on cardiac contractility and hemodynamics.
Male, Sprague-Dawley or Lewis rats weighing between 225-500 gm are anesthetized with isoflurane and an MI is induced as follows. A thoracotomy at the fourth or fifth intercostal space is done, the heart is exposed and the pericardium is opened. A 5-0 suture is placed around the left descending coronary artery 2-4 mm from its origin and permanently tied. The ribs, muscle and skin are separately closed and the animal is allowed to recover. Twenty to twenty-three weeks after surgery the animals are used to evaluate the effects of PKCα inhibitors on cardiac contractility and hemodynamics.
The effects of inhibitors on cardiac contractility and hemodynamics are evaluated in naïve and MI rats as follows. The animals are anesthetized with isoflurane. A femoral artery is isolated and cannulated for the measurement of systemic blood pressure. A jugular vein is isolated and cannulated for the intravenous infusion of inhibitor. The right carotid artery is isolated and a Millar conductance catheter is inserted to the left ventricle (LV) of the heart. […] Data are recorded continuously and derived using computerized data acquisition software (Notocord or Powerlab). […]

[3] = test system: isolated chicken ventricular myocytes; details: 1 μM drug; cited from earlier work
PKCα-GFP = assay: translocation of PKCα-GFP indicator polypeptide, confocal microscopy; assay type: cell-based; details: neonatal rat cardiomyocytes, PMA 60 minutes
Procedure: A PKCα indicator was prepared by operably linking a nucleotide sequence encoding PKCα to a nucleotide sequence encoding green fluorescence protein (GFP). An expression cassette comprising the PKCα-GFP nucleotide sequence was prepared. Adenovirus comprising the PKCα-GFP expression cassette was prepared.
Neonatal rat cardiomyocytes were cultured in plastic dishes and incubated until the appropriate density was reached. The cardiomyocytes were infected with an adenovirus encoding PKCα-GFP. The cultures were incubated for 24 hours. After 24 hours the cells were incubated with either DMSO alone (the vehicle treatment) or DMSO and PMA for 60 minutes. The cells were fixed and examined by confocal microscopy.

PKCα−/− hearts = assay: ex vivo working heart preparation, acute PMA infusion, PKCα null hearts; set-up: species or system mouse
Procedure: (§1) Hearts were isolated from four wild-type and four PKCα −/− (PKCα null) transgenic mice. The isolated hearts were infused with PMA at 9 different concentrations ranging from 8×10^−11 through 8×10^−7 M. Acute PMA infusion of each concentration occurred for a 7 minute period. The hearts were measured for maximal and minimal dP/dt in systole and diastole respectively.

wildtype mouse hearts = assay: ex vivo working heart preparation, acute PMA infusion, wildtype hearts
Procedure: as §1

PKCα = biological target: T1, PKCα (Rattus norvegicus, UniProt P05696); assay: confocal immunohistochemistry of PKCα localization in adult cardiomyocytes; assay type: cell-based; details: adult rat cardiomyocytes in culture, acute PMA stimulation
T1 construct: confocal micrographs of PKCα protein localization in adult rat cardiac myocytes at baseline (PKCα) or after PMA; endogenous in cells; host or cells: adult rat cardiomyocytes in culture

[4] = test system: isolated ventricular myocytes from adult rats; details: 10^−7 M, 1 Hz, 1 mM calcium; cited from earlier work
[5] = test system: isolated cardiac myocytes and whole guinea-pig hearts; details: cited from earlier work
[6] = 1000 nmol/kg/min i.v. infusion, 5 min, n=3

CNC[C@@H]1CCn2cc(c3ccccc32)C2=C(C(=O)NC2=O)c2cn(c3ccccc23)CCO1 [LY338522]
inhibition of the PKC isoforms (PKC isoforms): effective in inhibiting the PKC isoforms

CN(C)C[C@@H]1CCn2cc(c3ccccc32)C2=C(C(=O)NC2=O)c2cn(c3ccccc23)CCO1 [LY333531]
maximum dP/dt increase compared to baseline [1, 6]: 28%
minimum dP/dt increase compared to baseline [1, 6]: 17%
heart rate ([1]; 1000 nmol/kg/min, baseline 315±17, not statistically significant): 294±8 beats per minute

2-{8-[(Dimethylamino)methyl]-6,7,8,9-tetrahydropyrido[1,2-a]indol-3-yl}-3-(1-methylindol-3-yl)maleimide, HCl Salt [Ro-32-0432]
change in acute contractile performance ([2]; Ro-32-0432 treated group, similar to PKCα null mice): ~20%
average heart rate of drug treated group ([2]; during infusion, 295+/−26 before treatment): 292+/−6 beats per minute
increase in acute contractile function, measured as maximum dP/dt ([2]; infused at 4×10^−10 to 4×10^−6 M, 7 min per concentration, values summated, average dosage approx 1×10^−8 M, P<0.05): 20%
increase in left ventricular pressure developed ([2]; infused at 4×10^−10 to 4×10^−6 M, values summated, average dosage approx 1×10^−8 M, P<0.05): 20%
acute cardiac contractility upon infusion (FIG. 38) ([2]; infusion vs baseline, p<0.05): statistically significant increase

[H]/N=C(/N)SCCCn1cc(C2=C(c3cn(C)c4ccccc34)C(=O)NC2=O)c2ccccc21 [Ro-31-8220]
inotropic benefit compared with dobutamine (MI rats; dobutamine 5.0 μg/kg/min for 5 minutes): greater than that seen with dobutamine
percent increase in maximum dP/dt from baseline (MI rats; dose dependent i.v. infusion 10-1000 nmol/kg/min, significance (P<0.05) at 300 nmol/kg/min, n=4): 21%

CCCCCCCCCCCCCC(=O)O[C@@H]1[C@@H](C)[C@@]2(O)[C@@H](C=C(CO)C[C@]3(O)C(=O)C(C)=C[C@@H]23)[C@@H]2C(C)(C)[C@]12OC(C)=O [PMA, phorbol myristate acetate]
maximum decrease in the amplitude of cell shortening [3]: 54%
PKCα-GFP localization (PKCα-GFP): highly localized and punctate staining pattern; also recorded: robust redistribution of PKCα-GFP
functional performance (PKCα−/− hearts; highest concentrations of PMA): only a mild depression in functional performance
inotropic effect (PKCα−/− hearts; low doses of PMA): immediate positive inotropic effect
contractile performance (Maximum dP/dt or Minimum dP/dt) (wildtype mouse hearts; 8×10^−11 through 8×10^−9 M): essentially no effect
functional performance (wildtype mouse hearts; concentrations higher than 8×10^−9 M): marked decrease in functional performance
PKCα protein localization (PKCα): rapid translocation
twitch amplitude, of control [4]: approximately 60%
inotropic response ([5]; 10^−12 M PMA): significant positive inotropic response
inotropic response ([5]; concentrations higher than 10^−10 M PMA): negative inotropic response
